Patent publication US12097192B2 (Corcept Therapeutics Incorporated, priority 2019, dated 2024)

Columns and labels:
[1] = Relacorilant in healthy subjects (human volunteers): tolerability and steady state; type: in vivo
[2] = test system: Cushing's syndrome patients; assay: Cushing's syndrome patient study: coagulation factors, platelets, aPTT; type: in vivo, human
Excerpt: (§1) All patients gave informed consent before participating in any study-related procedures. […] The study protocol called for patient visits to the study site at screening, on Day 1 (baseline), Weeks 2, 4, 6, 8, 10, and 12, and after a 4-week follow-up period for Group 1. For Group 2, the protocol called for patient visits to the study site at screening, on Day 1 (baseline), Weeks 2, 4, 6, 8, 10, 12, 14, and 16, and after a 4-week follow-up period. Patient dosing will be done at home, except on days of study visits. […] The safety protocol also included assessments by physical examination findings, vital signs, ECG results, pregnancy tests, clinical laboratory test results (hematology and chemistry panels), adverse events (AEs), and concomitant medications. […] It ignores noncompliance, protocol deviations, withdrawal, and anything that happens after randomization. In contrast, per-protocol (PP) analysis refers to inclusion in the analysis of only those patients who strictly adhered to the protocol. The PP analysis provides an estimate of the true efficacy of an intervention, i.e., among those who completed the treatment as planned.

[3] = test system: Cushing's syndrome patients; assay: Cushing's syndrome patient study: liver function tests (ALT, AST); type: in vivo, human; conditions: All Subjects, mITT
Excerpt: as §1

[4] = test system: Cushing's syndrome patients; assay: Cushing's syndrome patient study: hypertension response (24-hour ambulatory blood pressure); type: in vivo, human
Protocol: (§2) All patients gave informed consent before participating in any study-related procedures.
Response criteria for hyperglycemia were changes from baseline in glucose tolerance as measured by: ≥0.5% decrease in HbA1c, normalization or ≥50 mg/dL decrease in 2-hr OGTT glucose, or decrease in total daily insulin (≥25%) or sulfonylurea dose (≥50%). Response criteria for hypertension (HTN) was a ≥5 mm Hg decrease in mean systolic and/or diastolic blood pressure (SBP/DBP).
Response was based on ≥0.5% reduction of HbA1c associated with reduction or discontinuation of diabetes medications or clinically significant reduction (≥50 mg/dL decrease) or normalisation of the 2-hour glucose measurement from an oral glucose tolerance test (OGTT).

[5] = test system: Cushing's syndrome patients; assay: Cushing's syndrome patient study: weight loss; type: in vivo, human
Excerpt: as §2

[6] = test system: other nuclear steroid hormone receptors; assay: Binding to other nuclear steroid hormone receptors
[7] = Abnormal at Baseline, mITT, Group 1 (100-200 mg/day, 12 weeks)
[8] = Abnormal at Baseline, mITT, Group 2 (250-400 mg/day, 16 weeks)
[9] = Abnormal at Baseline, mITT, Overall
[10] = Abnormal at Baseline, mPP, Group 1 (100-200 mg/day, 12 weeks)
[11] = Abnormal at Baseline, mPP, Group 2 (250-400 mg/day, 16 weeks)
[12] = Abnormal at Baseline, mPP, Overall
[13] = All Subjects, mITT, Group 1 (100-200 mg/day, 12 weeks)
[14] = All Subjects, mITT, Group 2 (250-400 mg/day, 16 weeks)
[15] = All Subjects, mPP, Group 1 (100-200 mg/day, 12 weeks)
[16] = All Subjects, mPP, Group 2 (250-400 mg/day, 16 weeks)
[17] = Group 1 (100-200 mg/day, 12 weeks)
[18] = Group 2 (250-400 mg/day, 16 weeks)

For Cn1cc(S(=O)(=O)N2CCC3=Cc4c(cnn4-c4ccc(F)cc4)C[C@]3(C(=O)c3cc(C(F)(F)F)ccn3)C2)cn1 [relacorilant, (R)-(1-(4-fluorophenyl)-6-((1-methyl-1H-pyrazol-4-yl)sulfonyl)-4,4a,5,6,7,8-hexahydro-1H-pyrazolo[3,4-g]isoquinolin-4a-yl) (4-(trifluoromethyl)pyridin-2-yl)methanone], the “tolerability of 14 days of dosing” value ([1]; human subjects, 14 days at 50 mg, 150 mg and 250 mg) was “well-tolerated”, the “achievement of steady state levels” value ([1]; human volunteers, daily dosing) was ≤ 7 days and the “tolerability of single doses” value ([1]; human, in vivo) was “well-tolerated”. The platelet count ([1]; some healthy subjects, non-dose-dependent, resolved by study end) was “transient reduction in platelet count”, the “adverse events at 500 mg” value ([1]; some subjects who received 500-mg relacorilant) was “(non-serious) musculoskeletal adverse events” and the “adverse events with repeat doses” value ([1]; some subjects, repeat doses up to 250 mg) was “mild to moderate musculoskeletal AEs”. The “Factor IX mean change from Baseline to Last Observed” value (from here on “Factor IX mean change from Baseline”) [2, 7] was −40.8%, the “Factor X mean change from Baseline to Last Observed” value (“Factor X mean change from Baseline” below) [2, 7] was −15.8% and the “Thrombin-Antithrombin mean change from Baseline to Last Observed” value (from here on “Thrombin-Antithrombin mean change”) [2, 7] was 1.61 µg/L. The “Factor IX mean change from Baseline” value [2, 8] was −4.2%, the “Factor X mean change from Baseline” value [2, 8] was −22% and the “Thrombin-Antithrombin mean change” value [2, 8] was -9.83 µg/L. For the same compound, the “von Willebrand Factor mean change from Baseline to Last Observed” value (“von Willebrand Factor mean change” below) [2, 8] was −18.5%, the “Factor IX mean change from Baseline” value [2, 9] was −22.5% and the “Factor X mean change from Baseline” value [2, 9] was −18.13%. The “Thrombin-Antithrombin mean change” value [2, 9] was -3.88 µg/L, the “von Willebrand Factor mean change” value [2, 9] was −18.5% and the “Factor IX mean change from Baseline” value [2, 10] was −40.8%. For the same compound, the “Factor X mean change from Baseline” value [2, 10] was −15.8%, the “Thrombin-Antithrombin mean change” value [2, 10] was 1.61 µg/L and the “Factor IX mean change from Baseline” value [2, 11] was −4.2%. For the same compound, the “Factor X mean change from Baseline” value [2, 11] was −22%, the “Thrombin-Antithrombin mean change” value [2, 11] was -9.83 µg/L and the “von Willebrand Factor mean change” value [2, 11] was −18.5%. For the same compound, the “Factor IX mean change from Baseline” value [2, 12] was −22.5%, the “Factor X mean change from Baseline” value [2, 12] was −18.13% and the “Thrombin-Antithrombin mean change” value [2, 12] was -3.88 µg/L. The “von Willebrand Factor mean change” value [2, 12] was −18.5%, the “Factor IX mean change from Baseline” value [2, 13] was −11.59% and the “Factor VIII mean change from Baseline to Last Observed” value (shortened to “Factor VIII mean change from Baseline”) [2, 13] was −11.94%. For the same compound, the “Factor X mean change from Baseline” value [2, 13] was −0.06%, the “Platelet Count mean change from Baseline to Last Observed” value (shortened to “Platelet Count mean change”) [2, 13] was −62.82 10^9/L and the “Thrombin-Antithrombin mean change” value [2, 13] was 1.48 µg/L. The “aPTT mean change from Baseline to Last Observed” value (from here on “aPTT mean change from Baseline”) [2, 13] was 2.24 s, the “von Willebrand Factor mean change” value [2, 13] was 2.88% and the “Factor IX mean change from Baseline” value [2, 14] was 6.44%. The “Factor VIII mean change from Baseline” value [2, 14] was −26.38%, the “Factor X mean change from Baseline” value [2, 14] was −8.88% and the “Platelet Count mean change” value [2, 14] was −74.82 10^9/L. The “Thrombin-Antithrombin mean change” value [2, 14] was -7.13 µg/L, the “aPTT mean change from Baseline” value [2, 14] was 0.5 s and the “von Willebrand Factor mean change” value [2, 14] was 10.88%. For the same compound, the “Factor IX mean change from Baseline” value ([2]; All Subjects, mITT, Overall) was −2.85%, the “Factor VIII mean change from Baseline” value ([2]; All Subjects, mITT, Overall) was −18.94% and the “Factor X mean change from Baseline” value ([2]; All Subjects, mITT, Overall) was −4.33%. For the same compound, the “Platelet Count mean change” value ([2]; All Subjects, mITT, Overall) was −68.82 10^9/L, the “Thrombin-Antithrombin mean change” value ([2]; All Subjects, mITT, Overall) was -2.69 µg/L and the “aPTT mean change from Baseline” value ([2]; All Subjects, mITT, Overall) was 1.45 s. For the same compound, the “von Willebrand Factor mean change” value ([2]; All Subjects, mITT, Overall) was 6.76%, the “Factor IX mean change from Baseline” value [2, 15] was −11.59% and the “Factor VIII mean change from Baseline” value [2, 15] was −11.94%. The “Factor X mean change from Baseline” value [2, 15] was −0.06%, the “Thrombin-Antithrombin mean change” value [2, 15] was 1.48 µg/L and the “aPTT mean change from Baseline” value [2, 15] was 2.24 s. For the same compound, the “von Willebrand Factor mean change” value [2, 15] was 2.88%, the “Factor IX mean change from Baseline” value [2, 16] was 6.44% and the “Factor VIII mean change from Baseline” value [2, 16] was −26.38%. The “Factor X mean change from Baseline” value [2, 16] was −8.88%, the “Thrombin-Antithrombin mean change” value [2, 16] was -7.13 µg/L and the “aPTT mean change from Baseline” value [2, 16] was 0.5 s. The “von Willebrand Factor mean change” value [2, 16] was 10.88%, the “Factor IX mean change from Baseline” value ([2]; All Subjects, mPP, Overall) was −2.85% and the “Factor VIII mean change from Baseline” value ([2]; All Subjects, mPP, Overall) was −18.94%. The “Factor X mean change from Baseline” value ([2]; All Subjects, mPP, Overall) was −4.33%, the “Thrombin-Antithrombin mean change” value ([2]; All Subjects, mPP, Overall) was -2.69 µg/L and the “aPTT mean change from Baseline” value ([2]; All Subjects, mPP, Overall) was 1.45 s. The “von Willebrand Factor mean change” value ([2]; All Subjects, mPP, Overall) was 6.76%, the “coagulation factors (FIG. 3)” value ([2]; Cushing's syndrome patients) was “improvement in coagulation factors” and the “onset of improvement/normalization of abnormally elevated coagulation factors” value ([2]; treatment with relacorilant) was “as early as after one month”. The “ALT (SGPT) mean change from Baseline to Last Observed” value (shortened to “ALT (SGPT) mean change from Baseline”) [3, 17] was −7.88 U/L, the “AST (SGOT) mean change from Baseline to Last Observed” value (“AST (SGOT) mean change from Baseline” below) [3, 17] was −2.71 U/L and the “ALT (SGPT) mean change from Baseline” value [3, 18] was −13.35 U/L. The “AST (SGOT) mean change from Baseline” value [3, 18] was −7.31 U/L, the “ALT (SGPT) mean change from Baseline” value ([3]; Overall) was −10.62 U/L and the “AST (SGOT) mean change from Baseline” value ([3]; Overall) was −4.94 U/L. The “hypertension response rate (≥5 mmHg reduction)” value ([4]; HD group (doses up to 400 mg daily), week 16) was 63.6%, the “hypertension response rate (≥5 mmHg reduction)” value ([4]; LD group (doses up to 200 mg daily), week 12) was 41.7% and the “nocturnal and daytime blood pressures” value ([4]; hypertension responders) was “clinically significant improvement”. The average weight loss ([5]; doses up to 200 mg daily, within 3 months) was 2.2 kg, the average weight loss ([5]; doses up to 400 mg daily, within 3 months) was 5.1 kg and the weight loss ([5]; many of the patients) was “Some weight loss”. The weight changes ([5]; within 3 months, in half of the patients) was “significant weight changes” and the “binding to other nuclear steroid hormone receptors” value [6] was “does not bind”.
